Laboratory results as given in patent publication US5656588A, “Wound healing formula” (Wake Forest University, priority 1994, dated 1997).
Entries after “also recorded” stand apart in the source; their conditions may differ. Read-outs that look alike come from different tables or passages of the source.

How the values were obtained:
wound healing [1] = details: supplementation of the diet, animals and humans; cited from earlier work
wound healing [2] = assay: Wound strength (abdominal bursting strength) in animals given carnosine or histidine following surgery; format: in vivo; details: supplement to a complete diet, mammals not nutritionally deprived
From the text: Pursuant to the present invention, therapeutically effective amounts of carnosine are supplemented with a complete diet. […] Previous studies in this area have advocated that the wound healing effects can be achieved with histamine or histidine. […] Table 2 illustrates comparative results between carnosine and histidine administered to animals following surgery.

[3] = system: gastric and duodenal ulcers; details: food deprived rats; cited from earlier work

## N=C(N)NCCC[C@H](N)C(=O)O [arginine]
Wound healing [1]
  Effect on wound healing (in words): improves wound healing

## NCCC(=O)N[C@@H](Cc1c[nH]cn1)C(=O)O [carnosine, β-alanyl-histidine]
Wound healing [2]
  Effect on wound healing (in words): improves wound healing; also recorded: more effective in stimulating wound healing than histidine treatment

## N-acetyl-L-carnosine aluminum
[3]
  Protection against ulcer formation (in words): protects against the formation of gastric and duodenal ulcers
